Results from US6432956B1, “Method for treatment of sleep apneas” (priority 1990, dated 2002).

Legend:
[1] = test system: patients suffering from obstructive sleep apnea; assay: Clinical experience: single dose of buspirone at bedtime in patients with obstructive sleep apnea; type: in vivo, human (patients)
Source text: The effectiveness of azapirone treatment of patients suffering from sleep apneas can be exemplified by clinical experience with buspirone. […] One of the most consistent physiological measurements of improvement was a 10 to 20% increase in blood oxygen levels, an indication of improved respiratory efficiency.

[2] = test system: respiration in cats; conditions: Garner, et al. 1989; cited from earlier work
[3] = test system: respiration in normal male volunteers; conditions: Rapoport, et al. 1988; cited from earlier work
[4] = single dose at bedtime, patients suffering from obstructive sleep apnea

O=C1CC2(CCCC2)CC(=O)N1CCCCN1CCN(c2ncccn2)CC1 [buspirone]
effectiveness in treating sleep apneas ([1]; patients suffering from sleep apneas): effective | episodes of sleep disturbance [1, 4]: marked reduction in episodes of sleep disturbance | sleep efficiency [1, 4]: increased sleep efficiency | total sleep time [1, 4]: gain in total sleep time | effect on respiration [2]: stimulatory effect on respiration | effect on respiration [3]: stimulatory effect on respiration
